# Measurements reported in patent US11986475B1, “Compositions and methods for treating cancer” (A2A Pharmaceuticals, Inc., priority 2022, dated 2024).
# Key:
# MDA-MB-231 = test: Cell viability assay (SRB or CTG) in MDA-MB-231; assay type: cell-based; conditions: Homo sapiens, MDA-MB-231, 72 h, 3 days after drug treatment
# Protocol: (§1) Human breast carcinoma cell line, MDA-MB-231 and human endometrial cancer cell line, HEC-59 were purchased from ATCC (American Type Culture Collection; USA). MDA-MB-231 cells were cultured in Dulbecco's modified Eagle's medium (Lonza, NJ, USA), and HEC-59 were grown in Iscove's Modified Dulbecco's Medium (Lonza, NJ, USA), supplemented with 10% fetal bovine serum (FBS, Lonza), 1% non-essential amino acid (NEAA), 2 mM L-glutamine (Sigma Aldrich, MO, USA) and 50 U/ml penicillin/streptomycin (P/S). All cell lines were tested regularly using MycoAlert Mycoplasma Detection Kit (Lonza). The cumulative length of the cells between thawing and use in the experiments was less than 20 passages.
# (§2) 4000 cells/well of MDA-MB-231 and HEC-59 cells were seeded in a 96 well plate in 80 μL media/well. Approximately 18 hours later, 3× drug solutions were prepared by serial dilution (100, 10, 5, 1, 0.5, 0.3, 0.1, 0.05, 0.01 μM), and the drug containing media was added to each well with a volume of 40 μL. For MDA-MB-231, 3 days after drug treatment, the SRB or CTG assay was performed. HEC59, the drug containing media was renewed at day 4. After 7 days total, the SRB or CTG assay was performed.
# HEC-59 = test: Cell viability assay (SRB or CTG) in HEC-59; assay type: cell-based; conditions: Homo sapiens, 7 days total, media renewed at day 4, SRB or CTG
# Protocol: as §1, §2
# RKO xenograft = test: RKO colon cancer xenograft tumor growth; assay type: in vivo, female athymic Balb/c nude mice
# Protocol: Six-to-eight-week-old female athymic Balb/c nude mice were housed with a temperature-controlled and 12-hour light/12-hour dark cycle environment. For in vivo colon cancer tumor growth, 5×10^6 RKO cells were prepared in 100 μl of DMEM and injected into right flank of female nude mice. Mouse weight and tumor volume were measured twice a week. Tumor volumes were calculated as length×width^2×0.5. Once the tumor volume had reached about 150-175 mm^3, xenografts were randomized into groups (8 mice per group). Animals were treated with vehicle, Compound 80 or oxaliplatin as mentioned in the table. The formulation for vehicle and Compound 80 was 50% PEG400 and 20% Cremophor RH40 final (50% of 40% Cremophor) in Acetate buffer, PH=4. Oxaliplatin was prepared in glucose solution. The mice were sacrificed after around 3 weeks or if the tumors reached a predefined tumor volume cut-off of 2500 mm^3.
# MDA-MB-231 xenograft = MDA-MB-231 xenograft tumor growth; assay type: in vivo, female athymic Balb/c nude mice; conditions: MDA-MB-231 xenograft, 20, 25 and 30 mpk BID
# Protocol: (§3) Compound 80 was tested in other xenograft models using the following cell lines: triple negative breast cancer cell line, MDA-MB-231, ovarian cancer cell line, SKOV-3 and endometrium cell line, HEC-59. For the SKOV-3 xenograft, 1.5×10^7 SKOV-3 cells in 200 μl of 1:1 DMEM: Matrigel (Thermo Fisher, NJ, USA) and for the MDA-MB-231 xenograft, 1.5×10^7 MDA-MB-231 cells in 100 μl of 1:1 DMEM: Matrigel (Thermo Fisher, NJ, USA) for was injected in the right flank of six-to-eight-week-old female athymic Balb/c nude mice. When the tumor volume reached mean of ˜200 mm^3 mice for SKOV-3 xenografts and between 150-175 mm^3 for MDA-MB-231 xenografts, mice were randomized in a group of 8, and treatment was initiated vehicle, 20 mpk BID, 25 mpk BID and 30 mpk BID of Compound 80. For the HEC-59 xenografts, 1.×10^7 HEC-59 cells in 100 μl of DMEM (Lonza, NJ, USA) was injected in the right flank of six-to-eight-week-old female athymic Balb/c nude mice. When the tumor volume reached mean of ˜150 mm^3 mice were randomized in a group of 8 mice, and treatment was initiated vehicle, 20 mpk BID, 40 mpk QD and 30/40 mpk BID of Compound 80.
# SKOV-3 xenograft = SKOV-3 xenograft tumor growth; assay type: in vivo, female athymic Balb/c nude mice; conditions: SKOV-3 xenograft, 20, 25 and 30 mpk BID
# Protocol: as §3
# HEC-59 xenograft = HEC-59 xenograft tumor growth; assay type: in vivo, female athymic Balb/c nude mice; conditions: 20 mpk BID, 40 mpk QD and 30/40 mpk BID
# Protocol: as §3
smiles,measurement,setting,value
"C[C@@H]1CN(c2ncc(F)c(Nc3cc(-c4ccc(OC(F)F)cc4)cnn3)n2)C[C@H](C)O1 [Compound 80, 5-(4-(difluoromethoxy)phenyl)-N-(2-((2R,6S)-2,6-dimethylmorpholino)-5-fluoropyrimidin-4-yl)pyridazin-3-amine]",IC50,MDA-MB-231,398 nM
same,IC50,HEC-59,236 nM
same,tumor growth inhibition (in words),"RKO xenograft; RKO xenograft, 20 and 30 mg/kg BID, 50 mg/kg QD PO",strong tumor growth inhibition in a dose-dependent manner
same,TGI,"RKO xenograft; RKO xenograft, at the highest dose, PO, 20 days",85%
same,tumor growth inhibition compared to the standard of care (FIG. 1),"RKO xenograft; xenograft model, versus standard of care (oxaliplatin)",superior tumor growth inhibition
same,tumor growth inhibition or regression,MDA-MB-231 xenograft,Statistically significant tumor growth inhibition or regression was observed
same,tumor growth inhibition or regression,SKOV-3 xenograft,Statistically significant tumor growth inhibition or regression was observed
same,tumor growth inhibition or regression,HEC-59 xenograft,Statistically significant tumor growth inhibition or regression was observed
